Like-named read-outs stand apart in the source and are kept apart here.
Columns and labels:
[1] = biological target: B-Raf kinase (SEQ. ID NO: 2) (Homo sapiens (Human), UniProt P15056); assay: Biochemical Assay for B-Raf (1); conditions: Table J
In short: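 Continuous PK/LDH-coupled NADH oxidation assay, A340 read for 6 h at 30° C., with 0.13 nM B-Raf, 30.1 nM MEK substrate and 1 mM ATP in Tris pH 7.5, MgCl2, DTT, detergents, 1% DMSO. Rate taken from 4–5 h window; percent inhibition vs no-compound and known-inhibitor controls; four-parameter fit gives IC50.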

[2] = biological target: C-Raf kinase (SEQ. ID NO: 3) (Homo sapiens (Human), UniProt P04049, Y340D/Y341D); assay: Biochemical Assay for C-Raf (1); conditions: Table J
Sequence of C-Raf kinase (SEQ. ID NO: 3) (P04049 307-648 Y340D/Y341D): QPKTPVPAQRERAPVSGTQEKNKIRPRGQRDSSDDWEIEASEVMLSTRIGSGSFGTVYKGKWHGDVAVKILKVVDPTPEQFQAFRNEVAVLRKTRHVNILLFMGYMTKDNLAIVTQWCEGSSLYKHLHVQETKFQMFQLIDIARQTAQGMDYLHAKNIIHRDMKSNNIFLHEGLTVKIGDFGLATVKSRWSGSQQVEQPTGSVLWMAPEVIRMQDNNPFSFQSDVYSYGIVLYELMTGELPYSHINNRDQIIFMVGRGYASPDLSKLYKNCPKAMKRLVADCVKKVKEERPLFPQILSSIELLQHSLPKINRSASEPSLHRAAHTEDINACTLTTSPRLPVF
In short: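 Coupled pyruvate kinase/LDH assay tracking NADH oxidation at 340 nm, with 0.43 nM C-Raf, 30.1 nM MEK and 1 mM ATP in pH 7.5 Tris buffer (15 mM MgCl2, 1% DMSO final). Read continuously for 6 h at 30 °C, rate taken from the 4–5 h window. IC50 from four-parameter fit of percent inhibition.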

[3] = tested on: Miapaca-2 cells; assay: MiaPaca-2 Cell Proliferation Assay (1); format: cell-based; conditions: Homo sapiens, MIA PaCa-2, single agent, read-out: MiaPaca2 (1) IC50
In short: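 Resazurin was added after compound exposure and incubated 5-6 h, then fluorescence read at 540 nm excitation and 600 nm emission to give IC50.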

[4] = biological target: A-Raf kinase (SEQ. ID No: 1) (Homo sapiens (Human), UniProt P10398, Y301D/Y302D); assay: Biochemical Assay for A-Raf (1); conditions: Table J
Sequence of A-Raf kinase (SEQ. ID No: 1) (P10398 other isoform, or with tags, fused parts or gaps Y301D (already in the parent)/Y302D (already in the parent)): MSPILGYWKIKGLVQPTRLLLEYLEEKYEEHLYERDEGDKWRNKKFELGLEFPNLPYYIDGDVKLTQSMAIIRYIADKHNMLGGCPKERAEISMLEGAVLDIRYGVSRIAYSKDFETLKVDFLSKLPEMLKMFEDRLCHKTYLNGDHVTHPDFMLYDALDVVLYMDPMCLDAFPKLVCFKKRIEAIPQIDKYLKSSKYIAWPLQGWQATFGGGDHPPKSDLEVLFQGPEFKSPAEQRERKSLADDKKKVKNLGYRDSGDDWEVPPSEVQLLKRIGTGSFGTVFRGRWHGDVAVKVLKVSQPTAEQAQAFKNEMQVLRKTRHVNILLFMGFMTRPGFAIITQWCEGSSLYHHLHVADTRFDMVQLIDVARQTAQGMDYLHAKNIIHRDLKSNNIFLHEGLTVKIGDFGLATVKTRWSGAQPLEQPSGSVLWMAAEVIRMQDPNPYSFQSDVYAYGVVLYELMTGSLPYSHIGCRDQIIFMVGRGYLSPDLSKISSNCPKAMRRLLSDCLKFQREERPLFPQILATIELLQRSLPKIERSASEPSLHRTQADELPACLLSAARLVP
In short: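 A-Raf Y301D/Y302D at 5.55 nM phosphorylates 30.1 nM MEK with 1 mM ATP in pH 7.5 Tris buffer, 1% DMSO. Activity was read continuously as NADH oxidation at 340 nm in a pyruvate kinase/lactate dehydrogenase coupled system for 6 h at 30 °C. Rates from 4–5 h were converted to percent inhibition, and IC50 came from a four-parameter fit.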

[5] = assay version (1), read-out: BRAF (1) IC50
[6] = assay version (1), read-out: CRAF (1) IC50
[7] = assay version (1), read-out: ARAF (1) IC50
[8] = biochemical assay (1), read-out: BRAF (1)
[9] = biochemical assay (1), read-out: CRAF (1)
[10] = biochemical assay (1), read-out: ARAF (1)

Sequence of B-Raf kinase (SEQ. ID NO: 2) (P15056 416-766): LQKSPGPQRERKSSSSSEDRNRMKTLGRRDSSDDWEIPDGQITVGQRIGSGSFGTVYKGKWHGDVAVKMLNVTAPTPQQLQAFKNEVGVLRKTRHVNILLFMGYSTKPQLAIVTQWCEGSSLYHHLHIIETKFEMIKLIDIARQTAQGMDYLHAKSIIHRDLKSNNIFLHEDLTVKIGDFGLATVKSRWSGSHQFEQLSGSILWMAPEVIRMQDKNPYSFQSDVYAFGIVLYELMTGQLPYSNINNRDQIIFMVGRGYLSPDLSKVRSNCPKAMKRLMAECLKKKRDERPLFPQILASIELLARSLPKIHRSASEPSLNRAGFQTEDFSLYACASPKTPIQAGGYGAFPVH

Compound	IC50 [1, 5] [nM]	IC50 [2, 6] [nM]	IC50 [3] [nM]	IC50 [4, 7] [nM]	IC50 [1, 8] [nM]	IC50 [2, 9] [nM]	IC50 [4, 10] [nM]
COC(=O)Nc1cc(-c2cc(-c3cc(NC(=O)c4ccnc(C(C)(C)F)c4)ccc3C)cc(OCCO)n2)ccn1 [Example 401]			1000 to 10000		≤ 100	≤ 100	1000 to 10000
COC(=O)Nc1cc(-c2cncc(-c3cc(NC(=O)c4ccnc(C(C)(C)F)c4)c(F)cc3C)c2)ccn1 [Example 384]			1000 to 10000		≤ 100	≤ 100	1000 to 10000
CC(=O)Nc1cc(-c2cc(-c3cc(NC(=O)c4ccnc(C(F)(F)F)c4)c(F)cc3C)ccn2)ccn1 [Example 2]	≤ 100	≤ 100	1000 to 10000	500 to 1000			
CC(=O)Nc1cc(-c2cc(-c3cc(NC(=O)c4cccc(C)c4)ccc3C)ccn2)ccn1 [Example 32]	≤ 100	≤ 100	1000 to 10000	500 to 1000			
Cc1ccc(NC(=O)c2ccnc(C(F)(F)F)c2)cc1-c1cccc(-c2ccnc(NC(=O)CC#N)c2)c1 [Example 62]	≤ 100	≤ 100	1000 to 10000	100 to 500			
CC(=O)Nc1cc(-c2cccc(-c3cc(NC(=O)c4ccnc(C(F)(F)F)c4)cnc3C)c2)ccn1 [Example 64]	≤ 100	≤ 100	1000 to 10000	1000 to 10000			
CNC(=O)c1cc(-c2cc(-c3cc(NC(=O)c4ccnc(C(F)F)c4)ccc3C)ccn2)ccn1 [Example 48]	≤ 100	≤ 100	1000 to 10000	1000 to 10000			
CNC(=O)c1cc(-c2cc(-c3cc(NC(=O)c4ccnc(C)c4)ccc3C)ncn2)ccn1 [Example 60]	100 to 500	≤ 100	1000 to 10000	1000 to 10000			
CNC(=O)c1cc(-c2cncc(-c3cc(NC(=O)c4ccnc(C5(C#N)CC5)c4)ccc3C)c2)ncn1 [Example 393]			1000 to 10000		≤ 100	≤ 100	1000 to 10000
CC(=O)Nc1cc(-c2cc(-c3cc(NC(=O)c4ccnc(C(F)(F)F)c4)cnc3C)ccn2)ccn1 [Example 36]	≤ 100	≤ 100	1000 to 10000	1000 to 10000			
CNC(=O)c1cc(-c2cc(-c3cc(NC(=O)c4ccnc(C(F)(F)F)c4)ccc3C)ncn2)ccn1 [Example 85]	≤ 100	≤ 100	1000 to 10000	1000 to 10000			
CCOc1ncc(-c2cc(NC(=O)c3ccnc(C(F)(F)F)c3)ccc2C)cc1-c1ccnc(NC(=O)C2CC2)c1 [Example 71]	100 to 500	100 to 500	1000 to 10000	1000 to 10000			

Second part, the compound after the results:

IC50 [1, 5] [nM]	IC50 [2, 6] [nM]	IC50 [3] [nM]	IC50 [4, 7] [nM]	IC50 [1, 8] [nM]	IC50 [2, 9] [nM]	IC50 [4, 10] [nM]	Compound
≤ 100	≤ 100	1000 to 10000	1000 to 10000				Cc1ccc(NC(=O)c2ccnc(C(F)(F)F)c2)cc1-c1cccc(-c2cc(NC(=O)C3CC3)ncn2)c1 [Example 80]
100 to 500	≤ 100	1000 to 10000	1000 to 10000				Cc1ccc(NC(=O)c2ccnc(C(F)(F)F)c2)cc1-c1cncc(-c2ccnc(N)c2)n1 [Example 90]
≤ 100	≤ 100	1000 to 10000	1000 to 10000				CCOc1ncc(-c2cc(NC(=O)c3ccnc(C(F)(F)F)c3)ccc2C)cc1-c1ccnc(NC(C)=O)c1 [Example 68]
≤ 100	≤ 100	1000 to 10000	1000 to 10000				CC(=O)Nc1cc(-c2cc(-c3cc(NC(=O)c4ccnc(C(F)(F)F)c4)ccc3C)ncn2)ccn1 [Example 84]
100 to 500	≤ 100	1000 to 10000	1000 to 10000				CC(=O)Nc1cc(-c2cc(-c3cc(NC(=O)c4ccnc(C(C)(C)C#N)c4)ccc3C)nc(C)n2)ccn1 [Example 89]
100 to 500	100 to 500	1000 to 10000	1000 to 10000				CCOc1ncc(-c2cc(NC(=O)c3ccnc(C(F)(F)F)c3)ccc2C)cc1-c1ccnc(C(=O)NC)c1 [Example 69]
≤ 100	≤ 100	1000 to 10000	1000 to 10000				COCC(=O)Nc1cc(-c2cc(-c3cc(NC(=O)c4ccnc(C(C)(C)C#N)c4)ccc3C)ccn2)ccn1 [Example 61]
≤ 100	≤ 100	1000 to 10000	1000 to 10000				COCC(=O)Nc1cc(-c2cccc(-c3cc(NC(=O)c4ccnc(C(F)(F)F)c4)ccc3C)c2)ccn1 [Example 57]
≤ 100	≤ 100	100 to 500	1000 to 10000				CC(=O)Nc1cc(-c2cc(-c3cc(NC(=O)c4ccnc(C(F)(F)F)c4)ccc3C)cc(OCCO)n2)ccn1 [Example 1, N-(3-(2′-acetamido-6-(2-hydroxyethoxy)-[2,4′-bipyridin]-4-yl)-4-methylphenyl)-2-(trifluoromethyl)isonicotinamide]

Reference: patent publication US12319655B2, “RAF kinase inhibitors and methods of use thereof” (Deciphera Pharmaceuticals, LLC, priority 2021, dated 2025)
